Source: article PMC10985226, “A tangible method to assess native ferroptosis suppressor activity” (Cell Reports Methods, 2024)

Biological target: T1, Glutathione peroxidase 4 (Strep-hGPX4) (Homo sapiens, UniProt P36969)
T1 construct: gene GPX4
T1 sequence (P36969 28-197): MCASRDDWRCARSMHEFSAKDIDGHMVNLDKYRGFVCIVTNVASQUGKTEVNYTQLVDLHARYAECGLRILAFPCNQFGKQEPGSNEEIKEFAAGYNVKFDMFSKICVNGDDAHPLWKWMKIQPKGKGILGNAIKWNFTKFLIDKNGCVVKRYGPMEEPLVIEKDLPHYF
Experiment: substrate turnover by isolated hGPX4, NADPH-coupled assay
Type: biochemical

Compound | substrate turnover by isolated hGPX4, NADPH-coupled assay
CC(C)(OO)c1ccccc1 [cumeneOOH, cumene hydroperoxide] | All hydroperoxides except for H2O2 afforded the GPX4-dependent NADPH consumption in the assay system
CC(C)(C)OO [tBuOOH, tert-butyl hydroperoxide] | All hydroperoxides except for H2O2 afforded the GPX4-dependent NADPH consumption in the assay system
